In patent US5393883A, “Antiviral combinations and compounds therefor” (Burroughs Wellcome Co., priority 1988, dated 1995):
Where two headings read alike, the source gives them in different places.

System: HSV-2
Assay: dye uptake method: prevention of HSV-2 cytopathic effect in Vero cells, acyclovir with ribonucleotide reductase inhibitor (Compound A)
Assay type: cell-based
Protocol: The ribonucleotide reductase inhibitors of the present invention were shown by use of the dye uptake method described by McLaren, Ellis and Hunter in Antivir. Res. 3, 223-234 (1983) to potentiate the in vitro antiviral effects of acyclovir. Vero cells (20,000 cells/well) were incubated in microtiter wells for 24 hours. Various concentrations of acyclovir and the ribonucleotide reductase inhibitors were added and the cells were infected with 30 infectious particles/well of HSV-1 or HSV-2. After 3 days incubation, the antiviral effects were assessed by determining the prevention of the cytopathic effects of the viruses. Examples of the synergistic antiherpes activity of 2-acetylpyridine (4,5-dihydro-5-thioxo-1,3,4-thiadiazol-2-yl)-hydrazone (Compound A) and acyclovir (ACV) are given below.

| Compound | IC50 Calculated (theoretical value for the additive combined effects of ACV and Compound A) (ACV alone) | IC50 (Human alphaherpesvirus 2, Vero, 72 h, read-out: IC50 Observed (concentration of ACV required to inhibit HSC2 replication by 50%)) | inhibition at 0.4 µM (Human alphaherpesvirus 2, Vero, 0.4 μM Compound A alone, read-out: % inhibition of virus replication by Compound A alone) | inhibition at 0.9 µM (Human alphaherpesvirus 2, Vero, 0.9 μM Compound A alone, read-out: % inhibition of virus replication by Compound A alone) | inhibition at 1.3 µM (Human alphaherpesvirus 2, Vero, 1.3 μM Compound A alone, read-out: % inhibition of virus replication by Compound A alone) | IC50 (Human alphaherpesvirus 2, Vero, read-out: IC50 of Compound A alone (inhibition of virus replication)) |
| --- | --- | --- | --- | --- | --- | --- |
| Nc1nc2c(ncn2COCCO)c(=O)[nH]1 [ACV, 9-(2-hydroxyethoxymethyl)guanine, reference compound] | 5.7 µM | 5.77 µM |  |  |  |  |
| CC(=NNc1n[nH]c(=S)s1)c1ccccn1 [Compound A, 2-acetylpyridine (4,5-dihydro-5-thioxo-1,3,4-thiadiazol-2-yl)-hydrazone] |  |  | 0% | 0% | 21% | 1.6 µM |
